Read-outs that look alike come from different tables or passages of the source.
Key:
PSMA = PSMA (Homo sapiens, UniProt Q04609); details: read-out: Ki (PSMA inhibition); cited from earlier work
PSMA+PiP tumors = details: cited from earlier work; for renal uptake (in words) / uptake in PSMA+ PiP tumors (in words): radiolabeled version
[1] = test system: PSMA+ PC-3 PiP and PSMA− PC-3 flu tumors; assay: Biodistribution of [177Lu]VK-03-27 without and with co-injection of competing inhibitor VK-03-27; format: in vivo, mice; details: for Biodistribution: Blood / Biodistribution: Flu tumor / Biodistribution: Lacrimal Glands / Biodistribution: PiP tumor / Biodistribution: Salivary gland / Biodistribution: kidneys / Biodistribution: spleen / Biodistribution: stomach: 2 Hour
[2] = test system: PSMA+ PC-3 PiP and PSMA− PC-3 flu tumors; details: for Biodistribution: Blood / Biodistribution: Flu tumor / Biodistribution: Lacrimal gland / Biodistribution: PiP tumor / Biodistribution: Salivary gland / Biodistribution: kidneys / Biodistribution: spleen / Biodistribution: stomach: without competitive inhibitor
[3] = test system: PSMA+ PC-3 PiP and PSMA− PC-3 flu tumors; assay: Biodistribution of [177Lu]VK-I-45 without and with co-injection of competing inhibitor [Lu]VK-I-45; format: in vivo, mice; details: 2 Hour
Description: VK-01-45 and its Lu-177 complex was reported in international PCT patent application publication no. WO 2017/165473 A, to Ray et al., which is incorporated herein by reference in its entirety. […] This approach can be applied to all compounds in WO 2017/165473 A1, to Ray et al.

[4] = mouse treated with 1.5 MBq; from Kiess et al., 2016; cited from earlier work
[5] = co-injection 0.1 nmole [Lu]VK-I-45
[6] = co-injection 0.5 nmole [Lu]VK-I-45
[7] = co-injection 1.0 nmole [Lu]VK-I-45
[8] = co-injection 5.0 nmole [Lu]VK-I-45

Sequence of PSMA (Q04609 whole entry): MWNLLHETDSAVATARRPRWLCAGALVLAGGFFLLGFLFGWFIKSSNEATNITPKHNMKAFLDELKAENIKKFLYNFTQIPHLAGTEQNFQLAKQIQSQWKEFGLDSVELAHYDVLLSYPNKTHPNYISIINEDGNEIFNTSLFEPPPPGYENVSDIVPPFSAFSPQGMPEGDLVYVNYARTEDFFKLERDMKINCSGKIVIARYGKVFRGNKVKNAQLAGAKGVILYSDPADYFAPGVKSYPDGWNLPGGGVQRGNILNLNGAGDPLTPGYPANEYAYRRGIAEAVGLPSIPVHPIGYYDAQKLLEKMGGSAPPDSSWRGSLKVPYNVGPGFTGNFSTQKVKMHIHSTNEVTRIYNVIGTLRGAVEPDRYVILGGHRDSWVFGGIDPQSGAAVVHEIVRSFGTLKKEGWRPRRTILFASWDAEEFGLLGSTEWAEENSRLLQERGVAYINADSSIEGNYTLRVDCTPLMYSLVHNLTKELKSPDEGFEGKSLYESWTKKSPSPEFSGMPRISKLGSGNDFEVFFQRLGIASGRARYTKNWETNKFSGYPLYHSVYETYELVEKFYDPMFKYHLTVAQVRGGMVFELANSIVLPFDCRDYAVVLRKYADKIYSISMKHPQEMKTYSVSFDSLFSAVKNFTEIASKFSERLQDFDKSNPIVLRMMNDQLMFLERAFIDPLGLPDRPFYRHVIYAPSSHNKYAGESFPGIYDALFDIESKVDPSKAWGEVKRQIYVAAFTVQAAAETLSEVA

O=C(O)CCC(OC(=O)NC(CCCCNC(=O)c1ccc(I)cc1F)C(=O)O)C(=O)O (stereo not drawn) [Compound 24]
Ki (PSMA): 0.2 nM
renal uptake (in words) (PSMA+PiP tumors): high initial renal uptake that decreases over time
uptake in PSMA+ PiP tumors (in words) (PSMA+PiP tumors): high uptake

O=C(O)CCC(OC(=O)NC(CCCCNC(=O)c1ccc(Br)cc1F)C(=O)O)C(=O)O (stereo not drawn) [Compound 25]
Ki (PSMA): 0.1 nM
renal uptake (in words) (PSMA+PiP tumors): high initial renal uptake that decreases over time
uptake in PSMA+ PiP tumors (in words) (PSMA+PiP tumors): high uptake

O=C(O)CC[C@H](NC(=O)N[C@@H](CCC(=O)NCCc1ccc(I)cc1)C(=O)O)C(=O)O [HS-549]
renal uptake (in words) (PSMA+PiP tumors): high initial kidney uptake
uptake in PSMA+ PiP tumors (in words) (PSMA+PiP tumors): high PSMA+Pip tumor uptake

O=C(O)CC[C@H](NC(=O)N[C@@H](CCCCN(Cc1ccc(Br)cc1)C(=O)CCCCNC(=O)CCC(C(=O)O)N1CCN(CC(=O)O)CCN(CC(=O)O)CCN(CC(=O)O)CC1)C(=O)O)C(=O)O (stereo partly drawn) [VK-03-27]
effect of competing inhibitor on uptake of [177Lu]VK-03-27 ([1]; VK-03-27 (no Lu complex) as the CI): reduces the uptake in kidneys, salivary glands and Lacrimal glands

O=C(O)CC[C@H](NC(=O)N[C@@H](CCCCNC(=O)c1ccc(I)cc1)C(=O)O)C(=O)O [YC-I-27]
uptake and retention in kidneys (PSMA+PiP tumors; radiolabeled form, out to two days post-injection): > 100 % ID/g
uptake in PSMA+ PiP tumors (in words) (PSMA+PiP tumors): high and prolonged uptake

O=C([O-])CN1CCN(CC(=O)[O-])CCN(C(CCC(=O)NCCCCC(=O)N(CCCC[C@H](NC(=O)N[C@@H](CCC(=O)O)C(=O)O)C(=O)O)Cc2ccc(Br)cc2)C(=O)O)CCN(CC(=O)[O-])CC1.[177Lu+3] (stereo partly drawn) [[^177Lu]VK-03-27]
Biodistribution: Blood ([2]; 2 Hour): 1.2 ± 1.7 % injected dose/gram
Biodistribution: Flu tumor ([2]; 2 Hour): 5.8 ± 9.6 % injected dose/gram
Biodistribution: Lacrimal gland ([2]; 2 Hour): 5.8 ± 9.6 % injected dose/gram
Biodistribution: PiP tumor ([2]; 2 Hour): 50 ± 14 % injected dose/gram
Biodistribution: Salivary gland ([2]; 2 Hour): 3.4 ± 4.4 % injected dose/gram
Biodistribution: kidneys ([2]; 2 Hour): 150 ± 32 % injected dose/gram
Biodistribution: spleen ([2]; 2 Hour): 7.4 ± 3.0 % injected dose/gram
Biodistribution: stomach ([2]; 2 Hour): 0.66 ± 0.75 % injected dose/gram
Biodistribution: Blood ([2]; 8 Hour): 0.06 ± 0.02 % injected dose/gram
Biodistribution: Flu tumor ([2]; 8 Hour): 0.25 ± 0.05 % injected dose/gram
Biodistribution: Lacrimal gland ([2]; 8 Hour): 0.25 ± 0.05 % injected dose/gram
Biodistribution: PiP tumor ([2]; 8 Hour): 41 ± 9 % injected dose/gram
Biodistribution: Salivary gland ([2]; 8 Hour): 0.34 ± 0.18 % injected dose/gram
Biodistribution: kidneys ([2]; 8 Hour): 52 ± 18 % injected dose/gram
Biodistribution: spleen ([2]; 8 Hour): 1.2 ± 0.6 % injected dose/gram
Biodistribution: stomach ([2]; 8 Hour): 0.32 ± 0.31 % injected dose/gram
Biodistribution: Blood ([2]; 24 Hour): 0.03 ± 0.01 % injected dose/gram
Biodistribution: Flu tumor ([2]; 24 Hour): 0.12 ± 0.02 % injected dose/gram
Biodistribution: Lacrimal gland ([2]; 24 Hour): 0.12 ± 0.02 % injected dose/gram
Biodistribution: PiP tumor ([2]; 24 Hour): 49 ± 7 % injected dose/gram
Biodistribution: Salivary gland ([2]; 24 Hour): 0.16 ± 0.06 % injected dose/gram
Biodistribution: kidneys ([2]; 24 Hour): 5.9 ± 2.7 % injected dose/gram
Biodistribution: spleen ([2]; 24 Hour): 0.28 ± 0.13 % injected dose/gram
Biodistribution: stomach ([2]; 24 Hour): 0.14 ± 0.03 % injected dose/gram
PSMA+ PiP tumor uptake (in words) ([2]; Table 7): high PSMA+PipTumor uptake
renal uptake (in words) ([2]; Table 7): very high early renal uptake
Biodistribution: Blood ([1]; No CI): 0.43 ± 0.6 % injected dose/gram
Biodistribution: Flu tumor ([1]; No CI): 0.4 ± 0.02 % injected dose/gram
Biodistribution: Lacrimal Glands ([1]; No CI): 1.06 ± 0.37 % injected dose/gram
Biodistribution: PiP tumor ([1]; No CI): 55 ± 12 % injected dose/gram
Biodistribution: Salivary gland ([1]; No CI): 1.2 ± 0.25 % injected dose/gram
Biodistribution: kidneys ([1]; No CI): 140 ± 21 % injected dose/gram
Biodistribution: spleen ([1]; No CI): 8.0 ± 2.8 % injected dose/gram
Biodistribution: stomach ([1]; No CI): 0.44 ± 0.6 % injected dose/gram
Biodistribution: Blood ([1]; co-injection 2 nmole VK-03-27): 0.23 ± 0.5 % injected dose/gram
Biodistribution: Flu tumor ([1]; co-injection 2 nmole VK-03-27): 0.32 ± 0.05 % injected dose/gram
Biodistribution: Lacrimal Glands ([1]; co-injection 2 nmole VK-03-27): 0.29 ± 0.08 % injected dose/gram
Biodistribution: PiP tumor ([1]; co-injection 2 nmole VK-03-27): 37 ± 8 % injected dose/gram
Biodistribution: Salivary gland ([1]; co-injection 2 nmole VK-03-27): 0.24 ± 0.04 % injected dose/gram
Biodistribution: kidneys ([1]; co-injection 2 nmole VK-03-27): 10.6 ± 0.6 % injected dose/gram
Biodistribution: spleen ([1]; co-injection 2 nmole VK-03-27): 0.8 ± 0.17 % injected dose/gram
Biodistribution: stomach ([1]; co-injection 2 nmole VK-03-27): 0.23 ± 0.09 % injected dose/gram
Biodistribution: Blood ([1]; co-injection 20 nmole VK-03-27): 0.25 ± 0.14 % injected dose/gram
Biodistribution: Flu tumor ([1]; co-injection 20 nmole VK-03-27): 0.27 ± 0.05 % injected dose/gram
Biodistribution: Lacrimal Glands ([1]; co-injection 20 nmole VK-03-27): 0.26 ± 0.05 % injected dose/gram
Biodistribution: PiP tumor ([1]; co-injection 20 nmole VK-03-27): 26 ± 4 % injected dose/gram
Biodistribution: Salivary gland ([1]; co-injection 20 nmole VK-03-27): 0.16 ± 0.04 % injected dose/gram
Biodistribution: kidneys ([1]; co-injection 20 nmole VK-03-27): 3.5 ± 0.56 % injected dose/gram
Biodistribution: spleen ([1]; co-injection 20 nmole VK-03-27): 0.39 ± 0.18 % injected dose/gram
Biodistribution: stomach ([1]; co-injection 20 nmole VK-03-27): 0.45 ± 0.35 % injected dose/gram
Biodistribution: Blood ([1]; co-injection 40 nmole VK-03-27): 0.16 ± 0.03 % injected dose/gram
Biodistribution: Flu tumor ([1]; co-injection 40 nmole VK-03-27): 0.25 ± 0.05 % injected dose/gram
Biodistribution: Lacrimal Glands ([1]; co-injection 40 nmole VK-03-27): 0.26 ± 0.11 % injected dose/gram
Biodistribution: PiP tumor ([1]; co-injection 40 nmole VK-03-27): 18 ± 3 % injected dose/gram
Biodistribution: Salivary gland ([1]; co-injection 40 nmole VK-03-27): 0.25 ± 0.21 % injected dose/gram
Biodistribution: kidneys ([1]; co-injection 40 nmole VK-03-27): 2.15 ± 0.1 % injected dose/gram
Biodistribution: spleen ([1]; co-injection 40 nmole VK-03-27): 0.21 ± 0.1 % injected dose/gram
Biodistribution: stomach ([1]; co-injection 40 nmole VK-03-27): 0.42 ± 0.21 % injected dose/gram

O=C([O-])CN1CCN(CC(=O)[O-])CCN(CC(=O)NCCCCC(=O)N(CCCC[C@H](NC(=O)N[C@@H](CCC(=O)O)C(=O)O)C(=O)O)Cc2ccc(Br)cc2)CCN(CC(=O)[O-])CC1.[177Lu+3] [[^177Lu]VK-I-45]
Biodistribution: Blood ([3]; No CI): 0.1 ± 0.04 % injected dose/gram
Biodistribution: Flu tumor ([3]; No CI): 0.3 ± 0.06 % injected dose/gram
Biodistribution: PiP tumor ([3]; No CI): 39 ± 14 % injected dose/gram
Biodistribution: Salivary gland ([3]; No CI): 0.16 ± 0.07 % injected dose/gram
Biodistribution: kidneys ([3]; No CI): 35 ± 17 % injected dose/gram
Biodistribution: spleen ([3]; No CI): 0.7 ± 0.2 % injected dose/gram
Biodistribution: stomach ([3]; No CI): 0.1 ± 0.04 % injected dose/gram
Biodistribution: Blood [3, 5]: 0.12 ± 0.02 % injected dose/gram
Biodistribution: Flu tumor [3, 5]: 0.4 ± 0.07 % injected dose/gram
Biodistribution: PiP tumor [3, 5]: 38 ± 4 % injected dose/gram
Biodistribution: Salivary gland [3, 5]: 0.16 ± 0.03 % injected dose/gram
Biodistribution: kidneys [3, 5]: 17 ± 11 % injected dose/gram
Biodistribution: spleen [3, 5]: 0.65 ± 0.1 % injected dose/gram
Biodistribution: stomach [3, 5]: 0.2 ± 0.08 % injected dose/gram
Biodistribution: Blood [3, 6]: 0.11 ± 0.04 % injected dose/gram
Biodistribution: Flu tumor [3, 6]: 0.35 ± 0.07 % injected dose/gram
Biodistribution: PiP tumor [3, 6]: 35 ± 8 % injected dose/gram
Biodistribution: Salivary gland [3, 6]: 0.12 ± 0.02 % injected dose/gram
Biodistribution: kidneys [3, 6]: 4.8 ± 1.4 % injected dose/gram
Biodistribution: spleen [3, 6]: 0.32 ± 0.07 % injected dose/gram
Biodistribution: stomach [3, 6]: 0.09 ± 0.02 % injected dose/gram
Biodistribution: Blood [3, 7]: 0.07 ± 0.02 % injected dose/gram
Biodistribution: Flu tumor [3, 7]: 0.2 ± 0.03 % injected dose/gram
Biodistribution: PiP tumor [3, 7]: 20 ± 1.5 % injected dose/gram
Biodistribution: Salivary gland [3, 7]: 0.07 ± 0.01 % injected dose/gram
Biodistribution: kidneys [3, 7]: 1.75 ± 0.32 % injected dose/gram
Biodistribution: spleen [3, 7]: 0.15 ± 0.02 % injected dose/gram
Biodistribution: stomach [3, 7]: 0.13 ± 0.08 % injected dose/gram
Biodistribution: Blood [3, 8]: 0.8 ± 0.04 % injected dose/gram
Biodistribution: Flu tumor [3, 8]: 0.36 ± 0.14 % injected dose/gram
Biodistribution: PiP tumor [3, 8]: 17.3 ± 1.9 % injected dose/gram
Biodistribution: Salivary gland [3, 8]: 0.11 ± 0.04 % injected dose/gram
Biodistribution: kidneys [3, 8]: 1.35 ± 0.44 % injected dose/gram
Biodistribution: spleen [3, 8]: 0.14 ± 0.06 % injected dose/gram
Biodistribution: stomach [3, 8]: 0.2 ± 0.18 % injected dose/gram

O=C(O)CC[C@H](NC(=O)NC(CCCCNC(=O)c1ccc([211At])cc1)C(=O)O)C(=O)O (stereo partly drawn) [[^211At]DCIBzL, (2S)-2-(3-(1-Carboxy-5-(4-[^211At]astatobenzamido)pentyl)ureido)-pentanedioic acid]
renal histopathology [4]: severe renal damage

From US20210338846A1, “COMPETITIVE PROSTATE-SPECIFIC MEMBRANE ANTIGEN (PSMA) BINDING AGENTS FOR REDUCTION OF NON-TARGET ORGAN UPTAKE OF RADIOLABELED PSMA INHIBITORS FOR PSMA POSITIVE TUMOR IMAGING AND RADIOPHARMACEUTICAL THERAPY” (The Johns Hopkins University, priority 2018, published 2021)
